Values quoted from earlier work in article PMC4895178 (Scientific Reports, 2016).

Settings: in plasma
From the text: The pioneering work of Vale et al.[8] established that residues 7 to 10 form the ph ...

## C[C@H](N)C(=O)NCC(=O)N[C@H]1CSSC[C@@H](C(=O)O)NC(=O)[C@H](CO)NC(=O)[C@H]([C@@H](C)O)NC(=O)[C@H](Cc2ccccc2)NC(=O)[C@H]([C@@H](C)O)NC(=O)[C@H](CCCCN)NC(=O)[C@H](Cc2c[nH]c3ccccc23)NC(=O)[C@H](Cc2ccccc2)NC(=O)[C@H](Cc2ccccc2)NC(=O)[C@H](CC(N)=O)NC(=O)[C@H](CCCCN)NC1=O [Somatostatin (SRIF), Somatostatin]
  half-life: 2 to 3 min
